Experimental data from patent US7138361B2, “Herbicidal heterocycles” (E. I. du Pont de Nemours and Company, priority 2000, dated 2006).

Columns and labels:
Assay type in all cases: in vivo
[1] = system: barnyardgrass (Echinochloa crus-galli); assay: Test B postemergence; details: 13 to 15 days
Summary of the method: (§1)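 Post-treatment, species sat 13–15 days under greenhouse conditions before visual scoring against controls, 0 (no effect) through 100 (complete control). Application preemergence to sown seeds or postemergence at 1- to 4-leaf stage, using a non-phytotoxic solvent/surfactant formulation.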

corn (Zea mays) [2] = assay: Test B postemergence; details: 13 to 15 days
Summary of the method: as §1

[3] = system: wheat (Triticum aestivum); assay: Test B postemergence; details: 13 to 15 days
Summary of the method: as §1

wild oat (Avena fatua) = assay: Test B postemergence; details: 13 to 15 days
Summary of the method: as §1

Nightshade [4] = assay: Test C preemergence
corn (Zea mays) [5] = assay: Test C preemergence; details: for Plant response rating (0 to 100), Corn: visual evaluation after 12 to 14 days
Summary of the method: (§2)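 Pre- and postemergence treatments used a non-phytotoxic solvent/surfactant formulation; post-treated plants measured 2 to 18 cm. Greenhouse hold 12–14 d; % control estimated visually relative to controls.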

[6] = system: johnsongrass (Sorghum halepense); assay: Test C preemergence; details: for Plant response rating (0 to 100), Johnsongrass: preemergence, visual evaluation after 12 to 14 days
Summary of the method: as §2

kochia (Kochia scoparia) = assay: Test C preemergence; details: for Plant response rating (0 to 100), Kochia: visual evaluation after 12 to 14 days
Summary of the method: as §2

[7] = system: lambsquarters (Chenopodium album); assay: Test C preemergence
Summary of the method: as §2

[8] = system: pigweed (Amaranthus retroflexus); assay: Test C preemergence
Summary of the method: as §2

soybean (Glycine max) = assay: Test C preemergence
Summary of the method: as §2

[9] = system: woolly cupgrass (Eriochloa villosa); assay: Test C preemergence; details: for Plant response rating (0 to 100), Cupgrass, Woolly: visual evaluation after 12 to 14 days
Summary of the method: as §2

[10] = system: yellow nutsedge (Cyperus esculentus); assay: Test C preemergence
Summary of the method: as §2

[11] = system: barnyardgrass (Echinochloa crus-galli); assay: Test C flooded paddy test; details: for Barnyardgrass plant response rating: Flooded Paddy, scale 0 to 100, 0 no effect, 100 complete control; for Plant response rating, Barnyardgrass: flooded paddy test, scale 0 to 100 (0 no effect, 100 complete control)
Summary of the method: (§3)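 Flooded paddy, 2-leaf stage at treatment. Readout: visual % control vs untreated, 0–100, at 12–14 d in greenhouse.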

[12] = system: duck salad (Heteranthera limosa); assay: Test C flooded paddy test; details: for Ducksalad plant response rating: Flooded Paddy, scale 0 to 100, 0 no effect, 100 complete control; for Plant response rating, Ducksalad: flooded paddy test, scale 0 to 100 (0 no effect, 100 complete control)
Summary of the method: as §3

rice (Oryza saliva) = assay: Test C flooded paddy test; details: for Rice plant response rating: Flooded Paddy, scale 0 to 100, 0 no effect, 100 complete control; for Plant response rating, Rice: flooded paddy test, scale 0 to 100 (0 no effect, 100 complete control)
Summary of the method: as §3

[13] = system: smallflower flatsedge (Cyperus difformis); assay: Test C flooded paddy test; details: for Flatsedge plant response rating: Flooded Paddy, scale 0 to 100, 0 no effect, 100 complete control; for Plant response rating, Flatsedge: flooded paddy test, scale 0 to 100 (0 no effect, 100 complete control)
Summary of the method: as §3

Nightshade [14] = assay: Test C preemergence; details: Rate 500 g/ha, visual evaluation after 12 to 14 days
Sunflower = assay: Test C preemergence; details: Rate 250 g/ha, scale 0 to 100, 0 no effect, 100 complete control
[15] = Rate 125 g/ha, scale 0 (no effect) to 100 (complete control)
[16] = Rate 500 g/ha, scale 0 to 100, 0 is no effect, 100 is complete control
[17] = Rate 125 g/ha, scale 0 to 100, 0 no effect, 100 complete control
[18] = preemergence, Rate 62 g/ha, scale 0 to 100
[19] = preemergence, Rate 500 g/ha, visual evaluation after 12 to 14 days
[20] = preemergence, Rate 250 g/ha, scale 0 to 100, 0 no effect, 100 complete control

COc1cc(N2CCC(n3ccc(C(C)C)n3)C2=O)ccc1C (stereo not drawn) [Compound 85]
Plant response rating, Barnyardgrass [1, 15]: 0 | Plant response rating, Barnyardgrass [1, 16]: 50 | Plant response rating, Corn (corn (Zea mays) [2]; [15]): 0 | Plant response rating, Corn (corn (Zea mays) [2]; [16]): 30 | Plant response rating, Wheat [3, 15]: 0 | Plant response rating, Wheat [3, 16]: 0 | Plant response rating, Wild Oat (wild oat (Avena fatua); [15]): 0 | Plant response rating, Wild Oat (wild oat (Avena fatua); [16]): 20 | Plant response rating, Nightshade (Nightshade [4]; Rate 62 g/ha, scale 0 to 100): 80 | Plant response rating, Nightshade (Nightshade [4]; [17]): 90 | Plant response rating, Nightshade (Nightshade [4]; Rate 250 g/ha, scale 0 to 100, 0 no effect, 100 complete control): 100 | Plant response rating, Corn (corn (Zea mays) [5]; [17]): 30 | Plant response rating, Corn (corn (Zea mays) [5]; [18]): 30 | Plant response rating (0 to 100), Corn (corn (Zea mays) [5]; preemergence, Rate 250 g/ha): 60 | Plant response rating (0 to 100), Corn (corn (Zea mays) [5]; preemergence, Rate 500 g/ha): 80 | Plant response rating, Johnsongrass [6, 17]: 50 | Plant response rating (0 to 100), Johnsongrass ([6]; Rate 250 g/ha): 80 | Plant response rating (0 to 100), Johnsongrass ([6]; Rate 500 g/ha): 100 | Plant response rating, Kochia (kochia (Kochia scoparia); [17]): 100 | Plant response rating, Kochia (kochia (Kochia scoparia); [18]): 100 | Plant response rating (0 to 100), Kochia (kochia (Kochia scoparia); preemergence, Rate 250 g/ha): 100 | Plant response rating (0 to 100), Kochia (kochia (Kochia scoparia); preemergence, Rate 500 g/ha): 100 | Plant response rating, Lambsquarters [7, 17]: 100 | Plant response rating, Lambsquarters [7, 18]: 100 | Plant response rating (0 to 100), Lambsquarters [7, 19]: 100 | Plant response rating, Lambsquarters [7, 20]: 100 | Plant response rating, Pigweed [8, 17]: 100 | Plant response rating, Pigweed [8, 18]: 100 | Plant response rating (0 to 100), Pigweed [8, 19]: 100 | Plant response rating, Pigweed [8, 20]: 100 | Plant response rating, Soybean (soybean (Glycine max); [17]): 40 | Plant response rating, Soybean (soybean (Glycine max); [18]): 20 | Plant response rating (0 to 100), Soybean (soybean (Glycine max); [19]): 100 | Plant response rating, Soybean (soybean (Glycine max); [20]): 40 | Plant response rating, Cupgrass, Woolly [9, 17]: 100 | Plant response rating, Cupgrass, Woolly [9, 18]: 100 | Plant response rating (0 to 100), Cupgrass, Woolly ([9]; preemergence, Rate 250 g/ha): 100 | Plant response rating (0 to 100), Cupgrass, Woolly ([9]; preemergence, Rate 500 g/ha): 100 | Plant response rating, Nutsedge [10, 17]: 70 | Plant response rating, Nutsedge [10, 18]: 50 | Plant response rating (0 to 100), Nutsedge [10, 19]: 90 | Plant response rating, Nutsedge [10, 20]: 70 | Barnyardgrass plant response rating ([11]; Rate 250 g/ha): 100 | Barnyardgrass plant response rating ([11]; Rate 500 g/ha): 100 | Plant response rating, Barnyardgrass ([11]; Rate 62 g/ha): 40 | Plant response rating, Barnyardgrass ([11]; Rate 125 g/ha): 90 | Ducksalad plant response rating ([12]; Rate 250 g/ha): 100 | Ducksalad plant response rating ([12]; Rate 500 g/ha): 100 | Plant response rating, Ducksalad ([12]; Rate 62 g/ha): 90 | Plant response rating, Ducksalad ([12]; Rate 125 g/ha): 100 | Rice plant response rating (rice (Oryza saliva); Rate 250 g/ha): 80 | Rice plant response rating (rice (Oryza saliva); Rate 500 g/ha): 100 | Plant response rating, Rice (rice (Oryza saliva); Rate 62 g/ha): 30 | Plant response rating, Rice (rice (Oryza saliva); Rate 125 g/ha): 60 | Flatsedge plant response rating ([13]; Rate 250 g/ha): 100 | Flatsedge plant response rating ([13]; Rate 500 g/ha): 100 | Plant response rating, Flatsedge ([13]; Rate 62 g/ha): 90 | Plant response rating, Flatsedge ([13]; Rate 125 g/ha): 100 | Plant response rating (0 to 100), Nightshade (Nightshade [14]): 100 | Plant response rating, Sunflower (Sunflower): 70
